Measurements reported in US9156845B2, “4-(substituted amino)-7H-pyrrolo[2,3-d] pyrimidines as LRRK2 inhibitors” (Pfizer Inc., priority 2012, dated 2015).
Counter-ions that a name gives are not always drawn.

Experiments:
[1] = target: GST-tagged truncated LRRK2 (Homo sapiens (Human), UniProt Q5S007); experiment: LRRK2 Lantha Screen kinase assay; assay type: biochemical; details: geometric mean of 2-5 determinations unless otherwise indicated (a: >=6 determinations; b: single determination); read-out: LRRK2 WT IC50
Procedure: LRRK2 kinase activity was measured using Lantha Screen technology from Invitrogen. GST-tagged truncated LRRK2 from Invitrogen (Cat # PV4874) was incubated with a fluorescein-labeled peptide substrate based upon ezrin/radixin/moesin (ERM), also known as LRRKtide (Invitrogen cat #PR8976A), in the presence of a dose response of compound. Upon completion, the assay was stopped and detected with a terbium labeled anti-phospho-ERM antibody (Invitrogen, cat #PR8975A). […] Aliquots (3.5 μL) of the 100% DMSO dose response were mixed with 46.5 μL water then 1 μL of this mixture was added to the 3 μL substrate mix in the 384-well plate. The kinase reaction was started with 3 μL of a working solution of LRRK2 enzyme at a concentration of 4 μg/mL. […] The reaction was allowed to progress at room temperature for two hours and then stopped with the addition of 7 μL of detection buffer (20 mM Tris pH 7.6, 0.01% NP-40, 0.02% NaN3, 6 mM EDTA with 2 nM terbium labeled anti-phospho-ERM).

[2] = target: mutant G2019S LRRK2 (Homo sapiens (Human), UniProt Q5S007, G2019S); experiment: LRRK2 Lantha Screen kinase assay, mutant enzyme; assay type: biochemical; details: geometric mean of 2-5 determinations unless otherwise indicated (a: >=6 determinations; b: single determination)
Sequence of mutant G2019S LRRK2 (Q5S007 970-2527 G2019S): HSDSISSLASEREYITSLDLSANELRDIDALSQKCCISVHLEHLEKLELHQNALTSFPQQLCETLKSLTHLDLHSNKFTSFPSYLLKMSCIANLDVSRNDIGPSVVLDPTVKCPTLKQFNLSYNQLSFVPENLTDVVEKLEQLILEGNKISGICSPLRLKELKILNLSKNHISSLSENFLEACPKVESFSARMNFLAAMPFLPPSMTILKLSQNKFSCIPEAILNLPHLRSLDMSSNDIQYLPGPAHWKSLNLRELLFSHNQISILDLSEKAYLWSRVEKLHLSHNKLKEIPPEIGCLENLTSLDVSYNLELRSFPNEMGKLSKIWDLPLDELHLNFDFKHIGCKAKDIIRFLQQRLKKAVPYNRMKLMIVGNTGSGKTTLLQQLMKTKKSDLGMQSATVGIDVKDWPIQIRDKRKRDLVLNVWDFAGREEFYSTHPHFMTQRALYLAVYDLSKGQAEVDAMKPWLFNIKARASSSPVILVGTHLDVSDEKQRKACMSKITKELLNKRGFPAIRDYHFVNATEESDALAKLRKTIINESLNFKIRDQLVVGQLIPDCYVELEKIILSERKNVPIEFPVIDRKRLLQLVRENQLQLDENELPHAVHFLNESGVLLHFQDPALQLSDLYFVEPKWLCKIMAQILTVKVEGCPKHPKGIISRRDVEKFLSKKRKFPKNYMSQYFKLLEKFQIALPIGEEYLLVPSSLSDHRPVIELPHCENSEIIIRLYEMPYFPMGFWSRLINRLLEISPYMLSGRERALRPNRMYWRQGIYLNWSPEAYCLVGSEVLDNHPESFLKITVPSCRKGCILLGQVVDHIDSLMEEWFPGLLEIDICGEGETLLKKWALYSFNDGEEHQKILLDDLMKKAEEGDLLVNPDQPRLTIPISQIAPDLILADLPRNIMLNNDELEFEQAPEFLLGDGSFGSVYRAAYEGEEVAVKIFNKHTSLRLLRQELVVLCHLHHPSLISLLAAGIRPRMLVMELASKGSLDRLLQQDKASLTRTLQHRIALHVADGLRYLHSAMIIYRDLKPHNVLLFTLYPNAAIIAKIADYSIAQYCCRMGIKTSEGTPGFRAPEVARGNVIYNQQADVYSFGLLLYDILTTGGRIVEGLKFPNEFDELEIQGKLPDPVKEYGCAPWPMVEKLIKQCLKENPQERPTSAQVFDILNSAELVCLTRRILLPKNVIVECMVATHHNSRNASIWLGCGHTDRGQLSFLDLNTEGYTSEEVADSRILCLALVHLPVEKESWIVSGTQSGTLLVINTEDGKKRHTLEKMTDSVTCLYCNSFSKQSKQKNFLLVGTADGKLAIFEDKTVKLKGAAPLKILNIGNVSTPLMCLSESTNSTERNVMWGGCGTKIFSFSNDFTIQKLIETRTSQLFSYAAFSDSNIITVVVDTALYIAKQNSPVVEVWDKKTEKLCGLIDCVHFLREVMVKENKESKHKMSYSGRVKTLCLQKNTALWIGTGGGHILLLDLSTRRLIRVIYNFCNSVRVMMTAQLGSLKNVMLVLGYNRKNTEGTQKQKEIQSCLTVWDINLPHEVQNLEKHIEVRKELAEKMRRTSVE

Sequence of GST-tagged truncated LRRK2 (Q5S007 970-2527): as the sequence (Q5S007 970-2527 G2019S) above, with S1050G counted along it

IC50 [1]	IC50 [2]	Compound
27.2 nM	186 nM	N#Cc1cccc(-c2c[nH]c3ncnc(N4CCO[C@H]5CCC[C@H]54)c23)c1 (relative stereo) [Example 208, rel-3-{4-[(4aR,7aS)-hexahydrocyclopenta[b][1,4]oxazin-4(4aH)-yl]-7H-pyrrolo[2,3-d]pyrimidin-5-yl}benzonitrile]
70 nM	172 nM	CC1CCCN(c2ncnc3[nH]cc(-c4cccc(C#N)c4)c23)C1 (single isomer, unassigned) [Example 41]
21 nM	102 nM	CC1CCN(c2ncnc3[nH]cc(-c4cccc(C#N)c4)c23)C1 (single isomer, unassigned) [Example 71]
12 nM	100 nM	COCC1CN(c2ncnc3[nH]cc(-c4cccc(C#N)c4)c23)CCO1 (single isomer, unassigned) [Example 74]
23 nM	208 nM	N#Cc1cccc(-c2c[nH]c3ncnc(N4CCOC(c5cc[nH]n5)C4)c23)c1 (single isomer, unassigned) [Example 76, 3-{4-[2-(1H-pyrazol-3-yl)morpholin-4-yl]-7H-pyrrolo[2,3-d]pyrimidin-5-yl}benzonitrile]
39 nM	158 nM	CC1CCN(c2ncnc3[nH]cc(-c4cccc(C#N)c4)c23)C1 (single isomer, unassigned) [Example 77]
214 nM	245 nM	COCC1CN(c2ncnc3[nH]cc(-c4cccc(C#N)c4)c23)CCO1 (single isomer, unassigned) [Example 197]
7.71 nM	95.7 nM	Cc1noc(C2CN(c3ncnc4[nH]cc(-c5cccc(C#N)c5F)c34)CCO2)n1 (single isomer, unassigned) [Example 213]
12 nM	43 nM	Cc1[nH]c2ncnc(N3CCOCC3)c2c1-c1cccc(C#N)c1 [Example 2, 3-[6-Methyl-4-(morpholin-4-yl)-7H-pyrrolo[2,3-d]pyrimidin-5-yl]benzonitrile]
9 nM	26 nM	N#Cc1cccc(-c2c[nH]c3ncnc(N4CCOCC4)c23)n1 [Example 3, 6-[4-(Morpholin-4-yl)-7H-pyrrolo[2,3-d]pyrimidin-5-yl]pyridine-2-carbonitrile]
5 nM	15 nM	CN(C)c1ncnc2[nH]cc(-c3cccc(C#N)c3)c12 [Example 5, 3-[4-(Dimethylamino)-7H-pyrrolo[2,3-d]pyrimidin-5-yl]benzonitrile]
7 nM	37 nM	C[C@H]1CN(c2ncnc3[nH]cc(-c4cccc(C#N)c4)c23)CCO1 [Example 6, 3-{4-[(2S)-2-Methylmorpholin-4-yl]-7H-pyrrolo[2,3-d]pyrimidin-5-yl}benzonitrile]
18 nM	18 nM	C[C@H]1CCCN(c2ncnc3[nH]cc(-c4cccc(CO)c4)c23)C1 [Example 7, (3-{4-[(3S)-3-Methylpiperidin-1-yl]-7H-pyrrolo[2,3-d]pyrimidin-5-yl}phenyl)methanol]
25 nM	33 nM	c1nc(N2CCOCC2)c2c(-c3cn[nH]c3)c[nH]c2n1 [Example 8, 4-(Morpholin-4-yl)-5-(1H-pyrazol-4-yl)-7H-pyrrolo[2,3-d]pyrimidine, formate salt]
42 nM	513 nM	Cc1nc(N2CCOCC2)c2c(-c3cccc(C#N)c3)c[nH]c2n1 [Example 9, 3-[2-Methyl-4-(morpholin-4-yl)-7H-pyrrolo[2,3-d]pyrimidin-5-yl]benzonitrile]
34 nM	23 nM	CN(C)c1ncnc2[nH]cc(-c3cccc(CO)c3)c12 [Example 10, {3-[4-(Dimethylamino)-7H-pyrrolo[2,3-d]pyrimidin-5-yl]phenyl}methanol]
90 nM	325 nM	CC1(C)CCCN(c2ncnc3[nH]cc(-c4cccc(C#N)c4)c23)C1 [Example 11, 3-[4-(3,3-dimethylpiperidin-1-yl)-7H-pyrrolo[2,3-d]pyrimidin-5-yl]benzonitrile]
6 nM	28 nM	N#Cc1cccc(-c2c[nH]c3ncnc(N4CCCCC4)c23)c1 [Example 12, 3-[4-(piperidin-1-yl)-7H-pyrrolo[2,3-d]pyrimidin-5-yl]benzonitrile]
41 nM	39 nM	NC(=O)C1CCCN(c2ncnc3[nH]cc(-c4ccccc4)c23)C1 (centres unmarked) [Example 13, 1-(5-phenyl-7H-pyrrolo[2,3-d]pyrimidin-4-yl)piperidine-3-carboxamide]
17 nM	95 nM	N#Cc1cccc(-c2c[nH]c3ncnc(N4CCC[C@H](O)C4)c23)c1 [Example 14, 3-{4-[(3S)-3-hydroxypiperidin-1-yl]-7H-pyrrolo[2,3-d]pyrimidin-5-yl}benzonitrile]

IC50 [1]	IC50 [2]	Compound
91 nM	92 nM	C[C@H]1CCCN(c2ncnc3[nH]cc(-c4ccccc4)c23)C1 [Example 15, 4-[(3S)-3-methylpiperidin-1-yl]-5-phenyl-7H-pyrrolo[2,3-d]pyrimidine]
16 nM	45 nM	C[C@H]1CCCN(c2ncnc3[nH]cc(-c4cccc(C#N)c4)c23)C1 [Example 16, 3-{4-[(3S)-3-methylpiperidin-1-yl]-7H-pyrrolo[2,3-d]pyrimidin-5-yl}benzonitrile]
14 nM	12 nM	C[C@H]1CCCN(c2ncnc3[nH]cc(-c4cnn(C)c4)c23)C1 [Example 17, 4-[(3S)-3-methylpiperidin-1-yl]-5-(1-methyl-1H-pyrazol-4-yl)-7H-pyrrolo[2,3-d]pyrimidine]
71 nM	47 nM	c1ccc(-c2c[nH]c3ncnc(N4CCCC4)c23)cc1 [Example 18, 5-phenyl-4-(pyrrolidin-1-yl)-7H-pyrrolo[2,3-d]pyrimidine]
38 nM	29 nM	OCC1CCN(c2ncnc3[nH]cc(-c4ccccc4)c23)CC1 [Example 19, [1-(5-phenyl-7H-pyrrolo[2,3-d]pyrimidin-4-yl)piperidin-4-yl]methanol]
56 nM	31 nM	N#CC1CCCN(c2ncnc3[nH]cc(-c4cccc(CO)c4)c23)C1 (centres unmarked) [Example 20, 1-{5-[3-(hydroxymethyl)phenyl]-7H-pyrrolo[2,3-d]pyrimidin-4-yl}piperidine-3-carbonitrile]
57 nM	183 nM	N#Cc1cccc(-c2c[nH]c3ncnc(N4CCCC(C#N)C4)c23)c1 (centres unmarked) [Example 21, 1-[5-(3-cyanophenyl)-7H-pyrrolo[2,3-d]pyrimidin-4-yl]piperidine-3-carbonitrile]
16 nM	16 nM	C[C@@H]1C[C@H](C)CN(c2ncnc3[nH]cc(-c4cnn(C)c4)c23)C1 [Example 22, 4-(3,5-cis-dimethylpiperidin-1-yl)-5-(1-methyl-1H-pyrazol-4-yl)-7H-pyrrolo[2,3-d]pyrimidine]
25 nM	46 nM	COc1ccc(C#N)cc1-c1c[nH]c2ncnc(N3CCCC(C)C3)c12 (centres unmarked) [Example 23, 4-methoxy-3-[4-(3-methylpiperidin-1-yl)-7H-pyrrolo[2,3-d]pyrimidin-5-yl]benzonitrile]
24 nM	30 nM	COc1ccc(C#N)cc1-c1c[nH]c2ncnc(N(C)C)c12 [Example 24, 3-[4-(dimethylamino)-7H-pyrrolo[2,3-d]pyrimidin-5-yl]-4-methoxybenzonitrile]
22 nM	19 nM	COc1ccc(Cl)cc1-c1c[nH]c2ncnc(N(C)C)c12 [Example 25, 5-(5-chloro-2-methoxyphenyl)-N,N-dimethyl-7H-pyrrolo[2,3-d]pyrimidin-4-amine]
42 nM	230 nM	N#Cc1cccc(-c2c[nH]c3ncnc(N4CCC(c5ncc[nH]5)CC4)c23)c1 [Example 26, 3-{4-[4-(1H-imidazol-2-yl)piperidin-1-yl]-7H-pyrrolo[2,3-d]pyrimidin-5-yl}benzonitrile]
95 nM	219 nM	COCC1CCCN(c2ncnc3[nH]cc(-c4cccc(C#N)c4)c23)C1 (centres unmarked) [Example 27, 3-{4-[3-(methoxymethyl)piperidin-1-yl]-7H-pyrrolo[2,3-d]pyrimidin-5-yl}benzonitrile]
40 nM	201 nM	CN1CCC2(CC1)CN(c1ncnc3[nH]cc(-c4cccc(C#N)c4)c13)CCO2 [Example 28, 3-[4-(9-methyl-1-oxa-4,9-diazaspiro[5.5]undec-4-yl)-7H-pyrrolo[2,3-d]pyrimidin-5-yl]benzonitrile]
79 nM	154 nM	COC1CCCN(c2ncnc3[nH]cc(-c4cccc(C#N)c4)c23)C1 (centres unmarked) [Example 29, 3-[4-(3-methoxypiperidin-1-yl)-7H-pyrrolo[2,3-d]pyrimidin-5-yl]benzonitrile]
17 nM	121 nM	COCC1CN(c2ncnc3[nH]cc(-c4cccc(C#N)c4)c23)CCO1 (centres unmarked) [Example 30, 3-{4-[2-(methoxymethyl)morpholin-4-yl]-7H-pyrrolo[2,3-d]pyrimidin-5-yl}benzonitrile]
54 nM	248 nM	CN(C)C(=O)CCNc1ncnc2[nH]cc(-c3cccc(C#N)c3)c12 [Example 31, N^3-[5-(3-cyanophenyl)-7H-pyrrolo[2,3-d]pyrimidin-4-yl]-N,N-dimethyl-beta-alaninamide]
67 nM	333 nM	N#Cc1cccc(-c2c[nH]c3ncnc(N4CCC(F)(F)CC4)c23)c1 [Example 32, 3-[4-(4,4-difluoropiperidin-1-yl)-7H-pyrrolo[2,3-d]pyrimidin-5-yl]benzonitrile]
17 nM	96 nM	N#Cc1cccc(-c2c[nH]c3ncnc(N4CCC(F)CC4)c23)c1 [Example 33, 3-[4-(4-fluoropiperidin-1-yl)-7H-pyrrolo[2,3-d]pyrimidin-5-yl]benzonitrile]
17 nM	56 nM	N#Cc1cccc(-c2c[nH]c3ncnc(N4CCC(F)CC4)c23)c1 [Example 33A, 3-[4-(4-fluoropiperidin-1-yl)-7H-pyrrolo[2,3-d]pyrimidin-5-yl]benzonitrile]
